Measured values from patent publication US20080293626A1, “Pigment epithelium-derived factor as a therapeutic agent for vascular leakage” (The Johns Hopkins University, priority 2003, published 2008).
pIC50: −log10 of the molar value. Ends that are not written are not given here.

Tests used:
[1] = test system: VEGF-induced retinal vascular permeability; assay: Fluorescein angiography after intravitreal co-injection with VEGF164; assay type: in vivo, mouse (C57BL/6J); conditions: mouse eye, co-injected intravitreally with 12.6 ng VEGF164 at 20-fold molar excess; 20 h after injection; qualitative
Protocol: (§1) Intravitreal injection to assess bioactivity on vascular permeability. C57BL/6J mice, 6-8 weeks of age, were cared for in accordance with the Association for Research in Vision and Opthalmology Statement for the Use of Animals in Ophthalmic and Vision Research. For anesthesia, each received intramuscularly 20 mg/kg ketamine, 20 mg/kg xylazine and 800 mg/kg urethane in 0.3-0.4 ml of phosphate buffered saline (PBS, 1.06 mM KH2PO4, 0.15 M NaCl and 3.00 mM Na2HPO4, pH 7.4). Under 10× magnification, 1 μl of murine VEGF164 (12.6 ng/μl in PBS; R&D Systems, Minneapolis, Minn.) was delivered through a 20° beveled glass pipette, with a tip diameter of 13-20 μm. The contralateral eye received an equal volume of PBS alone or PBS containing 12.6 ng VEGF164, and a 20-fold molar excess of PEDF (232 ng), ACT (278 ng), HSP47 (278 ng), PEDFpep (28.1 ng), ACTpep (29.7 ng), or CHIMERApep (28.2 ng).
Fluorescein angiograghy. Twenty hours after intravitreal injections, each pupil was dilated with one drop of 1% atropine sulfate. After intraperitoneal injection of 0.1 ml of 25% fluorescein, successive retina photographs were taken with a Kowa Genesis camera. The first photograph was taken within 20 seconds of the intraperitoneal fluorescein injection. […] Fluorescein leakage manifests as indistinct vascular borders progressing to diffusely hazy fluorescence.

[2] = test system: VEGF164-stimulated bovine retinal capillary endothelial cell migration; conditions: 8 h
Protocol: BRCEC migration assay. Bovine retinal capillary endothelial cells (BRCEC) were isolated and cultured as described 45. […] Cells, between the fifth and ninth passage, were starved overnight in MEM with D-Val and 2% fetal bovine serum. Polycarbonate filters (10 μm pore-size, PVPF; Osmonics Inc., Minnetonka, Minn.) were coated with 100 μg/ml collagen. Quadruplicates with test samples in MEM D-Val (28 μl), and 10^4 cells in MEM D-Val (50 μl) were placed in the lower and upper wells, respectively, of the microchemotaxis chamber (NeuroProbe, Gaithersburg, Md.). After incubating 8 hours at 37° C., the non-migrated cells on the upper surface of the filter were removed, and the filters were stained with Harris' hematoxylin. For each of the test samples, one 400× field per quadrant of each of the quadruplicates was counted. From the total cell number in the 4 fields, the mean and standard error of the quadruplicate wells were calculated. Baseline migration equaled the number of migrated cells with MEM D-Val without any added proteins or peptides. The difference between baseline and the number of migrated cells with VEGF added equals maximal total migration.

[3] = test system: VEGF-induced retinal vascular permeability; assay: Evans blue assay after intravitreal co-injection with VEGF164; assay type: in vivo, mouse (C57BL/6J); conditions: mouse eye, co-injected intravitreally with VEGF164 at 20-fold molar excess
Protocol: as §1
Evans Blue assay. […]
To assess the Evans blue-albumin concentration, the optical density of the retinal extract and plasma samples were measured at 620 nm and 740 nm. The retinal vasopermeability was calculated as the quantity of retinal Evans blue normalized to retinal dry weight, plasma Evans blue concentration, and circulation time by using the formula as described^32,44. […]

## VLLSPLSVATALSALSLGAEQRTESIIHRALYYDLISSPDIHGT [PEDFpep]
[1]
  effect on VEGF-induced fluorescein leakage / vascular permeability (fluorescein angiography): effectively inhibits
[2]
  pIC50: 8.52
[3]; 24 h, VEGF-induced increase = 100%, mean ±SE
  inhibition of VEGF-induced retinal vascular permeability (Evans blue-albumin): 83.7±17.1%
[3]; qualitative statement
  effect on VEGF-induced vascular permeability by Evans blue assay: effectively inhibited
